The results in this text go back to paper doi:10.1101/049825v1, “Htm1p-Pdi1p is a folding sensitive mannosidase that marks N-glycoproteins for ER-associated protein degradation” (biorxiv, 2016).

This assay has as its target T1, Htm1p-Pdi1p (Saccharomyces cerevisiae, UniProt P38888).
T1 construct: gene MNL1; full-length HTM1 coding region with C-terminal 3xFLAG-HDEL tag (released by TEV), chromosomal TDH3 promoter, strain yJW1820; co-purified with endogenous Pdi1p, near 1:1; with Protein disulfide-isomerase
T1 sequence (P38888 21-796): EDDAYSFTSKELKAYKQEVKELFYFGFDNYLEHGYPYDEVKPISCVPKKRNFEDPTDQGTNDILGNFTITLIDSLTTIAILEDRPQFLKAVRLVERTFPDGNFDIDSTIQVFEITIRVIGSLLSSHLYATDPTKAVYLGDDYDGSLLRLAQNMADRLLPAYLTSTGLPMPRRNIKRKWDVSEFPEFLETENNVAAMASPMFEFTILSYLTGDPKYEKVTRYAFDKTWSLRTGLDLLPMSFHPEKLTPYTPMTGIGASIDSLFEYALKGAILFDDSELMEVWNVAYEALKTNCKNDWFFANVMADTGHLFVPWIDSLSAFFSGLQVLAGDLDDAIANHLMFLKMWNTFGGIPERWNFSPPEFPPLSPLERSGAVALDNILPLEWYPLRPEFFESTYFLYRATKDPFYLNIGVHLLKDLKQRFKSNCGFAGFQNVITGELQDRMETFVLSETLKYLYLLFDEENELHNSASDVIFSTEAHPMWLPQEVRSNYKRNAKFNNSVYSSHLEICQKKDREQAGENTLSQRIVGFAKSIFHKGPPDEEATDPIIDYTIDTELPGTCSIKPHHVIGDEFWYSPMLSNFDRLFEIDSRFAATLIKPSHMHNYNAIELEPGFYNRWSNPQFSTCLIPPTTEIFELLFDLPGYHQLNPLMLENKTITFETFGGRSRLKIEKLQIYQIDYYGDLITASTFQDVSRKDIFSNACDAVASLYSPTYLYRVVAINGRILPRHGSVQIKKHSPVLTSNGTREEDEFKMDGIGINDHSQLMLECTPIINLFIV
T1 sequence (P17967 29-522 partner): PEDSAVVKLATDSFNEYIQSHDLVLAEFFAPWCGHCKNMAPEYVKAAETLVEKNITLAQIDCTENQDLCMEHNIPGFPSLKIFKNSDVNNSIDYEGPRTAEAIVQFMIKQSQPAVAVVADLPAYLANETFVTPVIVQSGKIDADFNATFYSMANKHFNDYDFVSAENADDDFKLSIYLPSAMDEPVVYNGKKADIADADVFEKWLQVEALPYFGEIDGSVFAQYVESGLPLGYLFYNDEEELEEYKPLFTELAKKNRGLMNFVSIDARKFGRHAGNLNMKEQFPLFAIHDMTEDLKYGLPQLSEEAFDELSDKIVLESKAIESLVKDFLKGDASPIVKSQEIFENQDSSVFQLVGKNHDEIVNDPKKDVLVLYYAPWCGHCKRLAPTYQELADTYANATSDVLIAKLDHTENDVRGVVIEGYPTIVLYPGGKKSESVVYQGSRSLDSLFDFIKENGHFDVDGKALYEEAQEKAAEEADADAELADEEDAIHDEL
The experiment in a line: MALDI-TOF MS glycan profiling of CPY* (Man8 to Man7 conversion). The assay is classed as biochemical. The settings on record: glycoprotein substrate CPY* 2 μM, enzyme 0.1 μM, 2 mM CaCl2, pH 7.0, 30°C, 20 h; inhibitor concentration not given.

Molecules are shown by their SMILES.

As to `OC[C@H]1NC[C@@H](O)[C@@H](O)[C@@H]1O` [1-deoxymannojirimycin], the “MALDI-TOF MS glycan profiling of CPY* (Man8 to Man7 conversion)” value was “Both chemicals inhibited the generation of Man7 on CPY*”.
